Experimental data reported in patent US7612064B2, “Sulfopyrroles” (Takeda Pharmaceutical Company Limited, priority 2003, dated 2009).

Legend:
[1] = Hoechst 33342 nuclear staining; assay type: cell-based; settings: for Hoechst 33342 nuclear staining score, HeLa: HeLa cells; for Hoechst 33342 nuclear staining score, Jurkat: Jurkat cells; for Hoechst 33342 nuclear staining score, H460: H460 cells; for Hoechst 33342 nuclear staining score, Jily: Jily cells; for Hoechst 33342 nuclear staining score, MRC5: MRC5 cells; on Hoechst 33342 nuclear staining score, PBLs: key: 0: no activity; 1: weak activity comprising less than 50% of the cells; 2: strong activity comprising more than 50% of the cells;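 on all read-outs here: apoptotic nuclei scored 0 none 1 weak under 50% of cells 2 strong over 50% of cells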
In short: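 Cells were plated in 96 well tissue culture plates in 80 μl complete medium, with 3-5*10^3 cells per well for adherent lines and 8-10*10^3 for suspension lines. Adherent cells spread for 24 h before treatment, while suspension cells were treated right after seeding. Compounds were added in 20 μl complete medium containing max 5% DMSO.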

Jurkat = assay: MTS proliferation assay; assay type: cell-based, human; settings: 72 h
In short: (§1)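 Cells were exposed for 72 h under culture conditions to test compounds at final concentrations of 10, 3, 1 and 0.3 μM, added in complete medium with at most 5% DMSO. MTS reagent was then added for a further 3 h, and absorbance was read at 492 nm.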

HeLa = assay: MTS proliferation assay; assay type: cell-based, human; settings: 72 h
In short: as §1

Jily = assay: MTS proliferation assay; assay type: cell-based; settings: 72 h
In short: as §1

MRC5 = assay: MTS proliferation assay; assay type: cell-based; settings: MRC5, 72 h
In short: as §1

IC50 (Jurkat) [µM] | IC50 (HeLa) [µM] | Compound | Hoechst 33342 nuclear staining score, HeLa ([1]; conc 0.1) | Hoechst 33342 nuclear staining score, HeLa ([1]; conc 0.3) | Hoechst 33342 nuclear staining score, HeLa ([1]; conc 1) | Hoechst 33342 nuclear staining score, HeLa ([1]; conc 3) | Hoechst 33342 nuclear staining score, Jurkat ([1]; conc 0.1) | Hoechst 33342 nuclear staining score, Jurkat ([1]; conc 0.3) | Hoechst 33342 nuclear staining score, Jurkat ([1]; conc 1) | Hoechst 33342 nuclear staining score, Jurkat ([1]; conc 3) | Hoechst 33342 nuclear staining score, PBLs ([1]; conc 0.1) | Hoechst 33342 nuclear staining score, PBLs ([1]; conc 0.3) | Hoechst 33342 nuclear staining score, PBLs ([1]; conc 1) | Hoechst 33342 nuclear staining score, PBLs ([1]; conc 3) | IC50 (MRC5) [µM] | Hoechst 33342 nuclear staining score, H460 ([1]; conc 0.1) | Hoechst 33342 nuclear staining score, H460 ([1]; conc 0.3) | Hoechst 33342 nuclear staining score, H460 ([1]; conc 1) | Hoechst 33342 nuclear staining score, H460 ([1]; conc 3) | Hoechst 33342 nuclear staining score, Jily ([1]; conc 0.1) | also measured
< 1 | < 1 | COc1cc(-c2cc(-c3cncc(CNC(C)=O)c3)cn2S(=O)(=O)c2ccc(C)cc2)cc(OC)c1OC [Example 60] | 0 | 0 | 1 (weak activity comprising less than 50% of the cells) | 2 (strong activity comprising more than 50% of the cells) | 0 | 2 (strong activity comprising more than 50% of the cells) | 2 (strong activity comprising more than 50% of the cells) | 2 (strong activity comprising more than 50% of the cells) | 0 | 0 | 0 | 0 | < 1 | 0 | 0 | 2 (strong activity comprising more than 50% of the cells) | 2 (strong activity comprising more than 50% of the cells) | 0 | Hoechst 33342 nuclear staining score, Jily ([1]; conc 0.3): 0; Hoechst 33342 nuclear staining score, Jily ([1]; conc 1): 2 (strong activity comprising more than 50% of the cells); Hoechst 33342 nuclear staining score, Jily ([1]; conc 3): 2 (strong activity comprising more than 50% of the cells); Hoechst 33342 nuclear staining score, MRC5 ([1]; conc 0.1): 0; Hoechst 33342 nuclear staining score, MRC5 ([1]; conc 0.3): 0; Hoechst 33342 nuclear staining score, MRC5 ([1]; conc 1): 0; Hoechst 33342 nuclear staining score, MRC5 ([1]; conc 3): 2 (strong activity comprising more than 50% of the cells); IC50 (Jily): < 1 µM
> 1 | > 1 | O=S(=O)(c1cccc(Cl)c1)n1cc(CNc2ccc(-n3ccnc3)cc2)cc1-c1ccc2c(c1)OCO2 [Example 74] | 0 | 0 | 0 | 0 | 0 | 0 | 0 | 0 | 0 | 0 | 0 | 0 | > 1 | 0 | 0 | 0 | 0 | 0 | Hoechst 33342 nuclear staining score, Jily ([1]; conc 0.3): 0; Hoechst 33342 nuclear staining score, Jily ([1]; conc 1): 0; Hoechst 33342 nuclear staining score, Jily ([1]; conc 3): 0; Hoechst 33342 nuclear staining score, MRC5 ([1]; conc 0.1): 0; Hoechst 33342 nuclear staining score, MRC5 ([1]; conc 0.3): 0; Hoechst 33342 nuclear staining score, MRC5 ([1]; conc 1): 0; Hoechst 33342 nuclear staining score, MRC5 ([1]; conc 3): 0

Continued, molecule first:

Compound | IC50 (Jurkat) [µM] | IC50 (HeLa) [µM] | Hoechst 33342 nuclear staining score, HeLa ([1]; conc 0.1) | Hoechst 33342 nuclear staining score, HeLa ([1]; conc 0.3) | Hoechst 33342 nuclear staining score, HeLa ([1]; conc 1) | Hoechst 33342 nuclear staining score, HeLa ([1]; conc 3) | Hoechst 33342 nuclear staining score, Jurkat ([1]; conc 0.1) | Hoechst 33342 nuclear staining score, Jurkat ([1]; conc 0.3) | Hoechst 33342 nuclear staining score, Jurkat ([1]; conc 1) | Hoechst 33342 nuclear staining score, Jurkat ([1]; conc 3) | Hoechst 33342 nuclear staining score, PBLs ([1]; conc 0.1) | Hoechst 33342 nuclear staining score, PBLs ([1]; conc 0.3) | Hoechst 33342 nuclear staining score, PBLs ([1]; conc 1) | Hoechst 33342 nuclear staining score, PBLs ([1]; conc 3) | IC50 (MRC5) [µM] | Hoechst 33342 nuclear staining score, H460 ([1]; conc 0.1) | Hoechst 33342 nuclear staining score, H460 ([1]; conc 0.3) | Hoechst 33342 nuclear staining score, H460 ([1]; conc 1) | Hoechst 33342 nuclear staining score, H460 ([1]; conc 3) | Hoechst 33342 nuclear staining score, Jily ([1]; conc 0.1) | also measured
COc1cc(-c2cc(-c3ccc(S(N)(=O)=O)cc3)cn2S(=O)(=O)c2ccc(C)cc2)cc(OC)c1OC [Example 57] | < 0.2 | < 1 | 0 | 0 | 0 | 2 (strong activity comprising more than 50% of the cells) | 0 | 0 | 1 (weak activity comprising less than 50% of the cells) | 2 (strong activity comprising more than 50% of the cells) | 0 | 0 | 0 | 0 | < 1 |  |  |  |  |  | IC50 (Jily): < 1 µM
COc1cc(-c2cc(-c3cncc(CN)c3)cn2S(=O)(=O)c2ccc(C)cc2)cc(OC)c1OC [Example 58] | < 1 | < 1 | 0 | 0 | 2 (strong activity comprising more than 50% of the cells) | 2 (strong activity comprising more than 50% of the cells) | 0 | 2 (strong activity comprising more than 50% of the cells) | 2 (strong activity comprising more than 50% of the cells) | 2 (strong activity comprising more than 50% of the cells) | 0 | 0 | 0 | 0 | > 1 | 0 | 0 | 2 (strong activity comprising more than 50% of the cells) | 2 (strong activity comprising more than 50% of the cells) | 0 | Hoechst 33342 nuclear staining score, Jily ([1]; conc 0.3): 0; Hoechst 33342 nuclear staining score, Jily ([1]; conc 1): 2 (strong activity comprising more than 50% of the cells); Hoechst 33342 nuclear staining score, Jily ([1]; conc 3): 2 (strong activity comprising more than 50% of the cells); Hoechst 33342 nuclear staining score, MRC5 ([1]; conc 0.1): 0; Hoechst 33342 nuclear staining score, MRC5 ([1]; conc 0.3): 0; Hoechst 33342 nuclear staining score, MRC5 ([1]; conc 1): 1 (weak activity comprising less than 50% of the cells); Hoechst 33342 nuclear staining score, MRC5 ([1]; conc 3): 2 (strong activity comprising more than 50% of the cells); IC50 (Jily): < 1 µM
NC(=O)c1cncc(-c2cc(-c3ccc4c(c3)OCO4)n(S(=O)(=O)c3cccc(Cl)c3)c2)c1 [Example 75] | > 1 | > 1 | 0 | 0 | 0 | 0 | 0 | 0 | 0 | 0 | 0 | 0 | 0 | 0 | > 1 | 0 | 0 | 0 | 0 | 0 | Hoechst 33342 nuclear staining score, Jily ([1]; conc 0.3): 0; Hoechst 33342 nuclear staining score, Jily ([1]; conc 1): 0; Hoechst 33342 nuclear staining score, Jily ([1]; conc 3): 0; Hoechst 33342 nuclear staining score, MRC5 ([1]; conc 0.1): 0; Hoechst 33342 nuclear staining score, MRC5 ([1]; conc 0.3): 0; Hoechst 33342 nuclear staining score, MRC5 ([1]; conc 1): 0; Hoechst 33342 nuclear staining score, MRC5 ([1]; conc 3): 0
COc1cc(-c2cc(-c3cccnc3)cn2S(=O)(=O)c2ccc(OC(F)(F)F)cc2)cc(OC)c1OC [Example 77] | > 1 | > 1 | 0 | 0 | 0 | 0 | 0 | 0 | 0 | 2 (strong activity comprising more than 50% of the cells) | 0 | 0 | 0 | 0 | > 1 | 0 | 0 | 0 | 1 (weak activity comprising less than 50% of the cells) | 0 | Hoechst 33342 nuclear staining score, Jily ([1]; conc 0.3): 0; Hoechst 33342 nuclear staining score, Jily ([1]; conc 1): 0; Hoechst 33342 nuclear staining score, Jily ([1]; conc 3): 1 (weak activity comprising less than 50% of the cells); Hoechst 33342 nuclear staining score, MRC5 ([1]; conc 0.1): 0; Hoechst 33342 nuclear staining score, MRC5 ([1]; conc 0.3): 0; Hoechst 33342 nuclear staining score, MRC5 ([1]; conc 1): 0; Hoechst 33342 nuclear staining score, MRC5 ([1]; conc 3): 0
CCCCOc1ccc(S(=O)(=O)n2cc(-c3cccnc3)cc2-c2cc(OC)c(OC)c(OC)c2)cc1 [Example 78] | > 1 | > 1 | 0 | 0 | 0 | 0 | 0 | 0 | 0 | 0 | 0 | 0 | 0 | 0 | > 1 | 0 | 0 | 0 | 0 | 0 | Hoechst 33342 nuclear staining score, Jily ([1]; conc 0.3): 0; Hoechst 33342 nuclear staining score, Jily ([1]; conc 1): 0; Hoechst 33342 nuclear staining score, Jily ([1]; conc 3): 0; Hoechst 33342 nuclear staining score, MRC5 ([1]; conc 0.1): 0; Hoechst 33342 nuclear staining score, MRC5 ([1]; conc 0.3): 0; Hoechst 33342 nuclear staining score, MRC5 ([1]; conc 1): 0; Hoechst 33342 nuclear staining score, MRC5 ([1]; conc 3): 0
